According to patent US11566007B2, “Ras inhibitors” (Revolution Medicines, Inc., priority 2019, dated 2023):
pEC50, pIC50: −log10 of the molar value.

How the values were obtained:
[1] = target: KRAS WT (Homo sapiens (Human), UniProt P01116+P62937); test: Ras-Raf (BRAF RBD) disruption / FRET / MOA assay, KRAS WT; assay type: biochemical; details: read-out: IC50* KRAS WT FRET data
How it was run: (§1)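 Compounds, top final concentration 30 μM in 10-point 3-fold series, incubated 3 hours at 25° C with nucleotide-loaded Ras, cyclophilin A and BRAF RBD.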

[2] = target: K-Ras G13C (Homo sapiens (Human), UniProt P01116+P62937, G13C); test: Ras-Raf (BRAF RBD) disruption / FRET / MOA assay, KRAS G13C; assay type: biochemical; details: KRAS G13C; Ras-Raf disruption/FRET/MOA assay; read-out: IC50* KRAS G13C FRET data
How it was run: as §1

[3] = target: KRAS G13D (Homo sapiens (Human), UniProt P01116+P62937, G13D); test: Ras-Raf (BRAF RBD) disruption / FRET / MOA assay, KRAS G13D; assay type: biochemical; details: read-out: IC50* KRAS G13D FRET data
How it was run: as §1

[4] = target: NRAS G12C (Homo sapiens (Human), UniProt P01111+P62937, G12C); test: Ras-Raf (BRAF RBD) disruption / FRET / MOA assay, NRAS G12C; assay type: biochemical; details: read-out: IC50* NRAS G12C FRET data
How it was run: as §1

[5] = system: NCI-H358 cells (K-Ras G12C); test: Potency assay: pERK in NCI-H358 cells; assay type: cell-based, human; details: Homo sapiens, NCI-H358; H358 KRAS G12C; read-out: pERK EC50
How it was run: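 pERK decrease read by AlphaLISA SureFire p-ERK1/2 or In-Cell Western after 4 h compound exposure at 37 °C, 5% CO2.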

[6] = target: NRAS Q61K (Homo sapiens (Human), UniProt P01111+P62937, Q61K); test: Ras-Raf (BRAF RBD) disruption / FRET / MOA assay, NRAS Q61K; assay type: biochemical; details: NRAS Q61K; Ras-Raf disruption/FRET/MOA assay; read-out: IC50* NRAS Q61K FRET data
How it was run: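 TR-FRET disruption of nucleotide-loaded Ras binding to BRAF RBD via compound-driven ternary complex with cyclophilin A. Compound as 10-point 3-fold series from 30 μM final, 3 h at 25° C, then anti-His Eu-W1024 (10 nM) and anti-GST allophycocyanin (50 nM) for 1.5 h. IC50 from decreased FRET ratio versus DMSO.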

[7] = target: KRAS G12S (Homo sapiens (Human), UniProt P01116+P62937, G12S); test: Ras-Raf (BRAF RBD) disruption / FRET / MOA assay, KRAS G12S; assay type: biochemical; details: Ras-Raf disruption/FRET/MOA assay; class symbols; read-out: KRAS G12S FRET data IC50
How it was run: as §1

Chain of KRAS G13D (P01116-2 other isoform, or with tags, fused parts or gaps G13D): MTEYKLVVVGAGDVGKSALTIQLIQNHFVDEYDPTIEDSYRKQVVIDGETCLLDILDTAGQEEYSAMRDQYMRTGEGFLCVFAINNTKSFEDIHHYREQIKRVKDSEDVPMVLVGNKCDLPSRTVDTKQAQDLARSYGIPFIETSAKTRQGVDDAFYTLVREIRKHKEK
Chain of KRAS G13D (P62937 whole entry): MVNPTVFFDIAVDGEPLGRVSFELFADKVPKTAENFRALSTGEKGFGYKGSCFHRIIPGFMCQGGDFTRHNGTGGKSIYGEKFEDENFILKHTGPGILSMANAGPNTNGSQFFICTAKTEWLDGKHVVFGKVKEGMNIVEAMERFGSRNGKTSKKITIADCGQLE
Chain of NRAS Q61K (P01111 whole entry Q61K): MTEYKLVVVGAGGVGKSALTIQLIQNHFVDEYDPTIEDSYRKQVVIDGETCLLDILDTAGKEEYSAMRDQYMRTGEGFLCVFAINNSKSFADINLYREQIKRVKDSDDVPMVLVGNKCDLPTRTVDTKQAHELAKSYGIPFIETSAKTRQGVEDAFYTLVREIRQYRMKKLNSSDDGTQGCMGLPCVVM
Chain of NRAS Q61K (P62937 whole entry): as the sequence (P62937 whole entry) above
Chain of KRAS WT (P01116-2 other isoform, or with tags, fused parts or gaps): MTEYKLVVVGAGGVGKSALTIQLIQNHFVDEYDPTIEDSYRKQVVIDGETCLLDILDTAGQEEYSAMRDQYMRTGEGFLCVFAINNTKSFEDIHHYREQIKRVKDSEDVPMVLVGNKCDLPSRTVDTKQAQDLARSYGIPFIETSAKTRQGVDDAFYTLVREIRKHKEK
Chain of KRAS WT (P62937 whole entry): as the sequence (P62937 whole entry) above
Chain of KRAS G12S (P01116-2 other isoform, or with tags, fused parts or gaps G12S): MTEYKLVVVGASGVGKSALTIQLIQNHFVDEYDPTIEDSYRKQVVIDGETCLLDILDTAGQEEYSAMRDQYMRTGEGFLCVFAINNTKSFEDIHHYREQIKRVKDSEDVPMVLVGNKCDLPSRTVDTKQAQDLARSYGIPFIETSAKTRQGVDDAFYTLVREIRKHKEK
Chain of KRAS G12S (P62937 whole entry): as the sequence (P62937 whole entry) above
Chain of K-Ras G13C (P01116-2 other isoform, or with tags, fused parts or gaps G13C): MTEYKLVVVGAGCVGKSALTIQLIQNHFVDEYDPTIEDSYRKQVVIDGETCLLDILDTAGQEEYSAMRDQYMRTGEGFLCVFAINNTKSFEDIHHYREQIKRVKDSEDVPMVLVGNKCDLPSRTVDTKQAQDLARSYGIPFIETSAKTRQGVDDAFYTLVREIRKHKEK
Chain of K-Ras G13C (P62937 whole entry): as the sequence (P62937 whole entry) above
Chain of NRAS G12C (P01111 whole entry G12C): as the sequence (P01111 whole entry Q61K) above, with G12C, K61Q counted along it
Chain of NRAS G12C (P62937 whole entry): as the sequence (P62937 whole entry) above

| SMILES | pIC50 [1] | pIC50 [2] | pIC50 [3] | pIC50 [4] | pEC50 [5] | pIC50 [6] | pIC50 [7] |
| --- | --- | --- | --- | --- | --- | --- | --- |
| CCn1c(-c2cccnc2[C@H](C)OC)c2c3cc(ccc31)-c1cccc(c1)C[C@H](NC(=O)[C@H](C(C)C)N1CC[C@@]3(CCN(C(=O)C#C[C@H]4COCCN4C)C3)C1=O)C(=O)N1CCC[C@H](N1)C(=O)OCC(C)(C)C2 (atropisomer, axis not shown) [Example A551] | 5.00 to 6.00 | 6.00 to 7.00 | 5.00 to 6.00 | > 8.00 | > 5.30 | 5.00 to 6.00 | 5.00 to 6.00 |
| C=CC(=O)N1CC[C@@H]2[C@H]1CN2C(=O)N(C)[C@H](C(=O)N[C@H]1Cc2nc(cs2)-c2ccc3c(c2)c(c(-c2cccnc2[C@H](C)OC)n3CC)CC(C)(C)COC(=O)[C@@H]2CCCN(N2)C1=O)C(C)C (atropisomer, axis not shown) [Example A546] | 5.00 to 6.00 | 7.00 to 8.00 | 5.00 to 6.00 | 6.00 to 7.00 | > 5.30 | 6.00 to 7.00 | 5.00 to 6.00 |
| C=CC(=O)N1CC[C@H](C(=O)N(C)[C@H](C(=O)N[C@H]2Cc3cc(O)cc(c3)-c3ccc4c(c3)c(c(-c3cnn5c3[C@@H](OC)CCC5)n4CC)CC(C)(C)COC(=O)[C@@H]3CCCN(N3)C2=O)C(C)C)C1 [Example A300] | 7.00 to 8.00 | 7.00 to 8.00 | 7.00 to 8.00 | > 8.00 | > 5.30 | 6.00 to 7.00 | 7.00 to 8.00 |
| C=CC(=O)N(C)CC1CN(C(=O)N(C)[C@H](C(=O)N[C@H]2Cc3nc(cs3)-c3ccc4c(c3)c(c(-c3cccnc3[C@H](C)OC)n4CC)CC(C)(C)COC(=O)[C@@H]3CCCN(N3)C2=O)C(C)C)C1 (atropisomer, axis not shown) [Example A368] | 6.00 to 7.00 | 6.00 to 7.00 | 6.00 to 7.00 | 7.00 to 8.00 | > 5.30 | 7.00 to 8.00 | 6.00 to 7.00 |
| C=CC(=O)N1CCO[C@H]2CCN(C(=O)N(C)[C@H](C(=O)N[C@H]3Cc4nc(cs4)-c4ccc5c(c4)c(c(-c4cccnc4[C@H](C)OC)n5CC)CC(C)(C)COC(=O)[C@@H]4CCCN(N4)C3=O)C(C)C)C[C@H]21 (atropisomer, axis not shown) [Example A580] | 6.00 to 7.00 | 6.00 to 7.00 | 6.00 to 7.00 | 7.00 to 8.00 | > 5.30 | 7.00 to 8.00 | 6.00 to 7.00 |
| CCn1c(-c2cccnc2[C@H](C)OC)c2c3cc(ccc31)-c1csc(n1)C[C@H](NC(=O)[C@@H](COC1CN(C(=O)C#CC(C)(C)N(C)C)C1)OC)C(=O)N1CCC[C@H](N1)C(=O)OCC(C)(C)C2 (atropisomer, axis not shown) [Example A660] | 6.00 to 7.00 | 6.00 to 7.00 | 5.00 to 6.00 | > 8.00 | > 5.30 | 6.00 to 7.00 | 5.00 to 6.00 |
| CO[C@@H](C)c1ncccc1-c1c2c3cc(ccc3n1CC(F)(F)F)-c1cnc(o1)C[C@H](NC(=O)[C@H](C(C)C)N(C)C(=O)[C@H]1CCN(C(=O)C#CC(C)(C)N(C)C)C1)C(=O)N1CCC[C@H](N1)C(=O)OCC(C)(C)C2 (atropisomer, axis not shown) [Example A707] | 5.00 to 6.00 | 6.00 to 7.00 | 5.00 to 6.00 | > 8.00 | > 5.30 | < 5.00 | 5.00 to 6.00 |
| C=CC(=O)N(C)CCC1CCN(C(=O)N(C)[C@H](C(=O)N[C@H]2Cc3nc(cs3)-c3ccc4c(c3)c(c(-c3cccnc3[C@H](C)OC)n4CC)CC(C)(C)COC(=O)[C@@H]3CCCN(N3)C2=O)C(C)C)CC1 (atropisomer, axis not shown) [Example A621] | 7.00 to 8.00 | 7.00 to 8.00 | 6.00 to 7.00 | 7.00 to 8.00 | > 5.30 | 7.00 to 8.00 | 7.00 to 8.00 |
| C=CC(=O)N(C)[C@@H]1CCN(C(=O)N(C)[C@H](C(=O)N[C@H]2Cc3nc(cs3)-c3ccc4c(c3)c(c(-c3cccnc3[C@H](C)OC)n4CC)CC(C)(C)COC(=O)[C@@H]3CCCN(N3)C2=O)C(C)C)C1 (atropisomer, axis not shown) [Example A416] | 6.00 to 7.00 | 6.00 to 7.00 | 6.00 to 7.00 | 6.00 to 7.00 | > 5.30 | 7.00 to 8.00 | 6.00 to 7.00 |
| CO[C@@H](C)c1ncccc1-c1c2c3cc(ccc3n1CC(F)(F)F)-c1nc(ns1)C[C@H](NC(=O)[C@@H](COC1CN(C(=O)C#CC(C)(C)N(C)C)C1)C(C)C)C(=O)N1CCC[C@H](N1)C(=O)OCC(C)(C)C2 (atropisomer, axis not shown) [Example A590, (2R)-2-(((1-(4-(dimethylamino)-4-methylpent-2-ynoyl)azetidin-3-yl)oxy)methyl)-N-((6^3S,4S,Z)-1^2-(2-((S)-1-methoxyethyl)pyridin-3-yl)-10,10-dimethyl-5,7-dioxo-1^1-(2,2,2-trifluoroethyl)-6^1,6^2,6^3,6^4,6^5,6^6-hexahydro-1^1H-8-oxa-2(5,3)-thiadiazola-1(5,3)-indola-6(1,3)-pyridazinacycloundecaphane-4-yl)-3-methylbutanamide] | 5.00 to 6.00 | 5.00 to 6.00 | < 5.00 | 7.00 to 8.00 | > 5.30 | 5.00 to 6.00 | 5.00 to 6.00 |
| C=CC(=O)N(C)C1CCN(C(=O)N(C)[C@H](C(=O)N[C@H]2Cc3nc(cs3)-c3ccc4c(c3)c(c(-c3cccnc3[C@H](C)OC)n4CC)CC(C)(C)COC(=O)[C@@H]3CCCN(N3)C2=O)C(C)C)CC1 (atropisomer, axis not shown) [Example A383] | 7.00 to 8.00 | 7.00 to 8.00 | 6.00 to 7.00 | 7.00 to 8.00 | > 5.30 | 7.00 to 8.00 | 7.00 to 8.00 |
| C=CC(=O)N(C)[C@@H]1CCCN(C(=O)N(C)[C@H](C(=O)N[C@H]2Cc3nc(cs3)-c3ccc4c(c3)c(c(-c3cccnc3[C@H](C)OC)n4CC)CC(C)(C)COC(=O)[C@@H]3CCCN(N3)C2=O)C(C)C)C1 (atropisomer, axis not shown) [Example A382] | 7.00 to 8.00 | 6.00 to 7.00 | 6.00 to 7.00 | 7.00 to 8.00 | > 5.30 | 7.00 to 8.00 | 7.00 to 8.00 |
| C=CC(=O)N1CCO[C@H]2CN(C(=O)N(C)[C@H](C(=O)N[C@H]3Cc4cccc(n4)-c4ccc5c(c4)c(c(-c4cccnc4[C@H](C)OC)n5CC)CC(C)(C)COC(=O)[C@@H]4CCCN(N4)C3=O)C(C)C)C[C@H]21 (atropisomer, axis not shown) [Example A597] | 5.00 to 6.00 | 7.00 to 8.00 | 5.00 to 6.00 | 7.00 to 8.00 | > 5.30 | 6.00 to 7.00 | 5.00 to 6.00 |
| CCn1c(-c2cccnc2[C@H](C)OC)c2c3cc(ccc31)N1CCO[C@@H](C[C@H](NC(=O)[C@H](C(C)C)N(C)C(=O)[C@@]3(F)CCC(C(=O)C#CC(C)(C)N4CCC4)C3)C(=O)N3CCC[C@H](N3)C(=O)OCC(C)(C)C2)C1 (stereo partly drawn) [Example A726] | 5.00 to 6.00 | 6.00 to 7.00 | 5.00 to 6.00 | 7.00 to 8.00 | > 5.30 | < 5.00 | 5.00 to 6.00 |
| C=CC(=O)N1CCN(C(=O)N(C)[C@H](C(=O)N[C@H]2Cc3nc(cs3)-c3ccc4c(c3)c(c(-c3cccnc3[C@H](C)OC)n4CC)CC(C)(C)COC(=O)[C@@H]3CCCN(N3)C2=O)C(C)C)CC1 (atropisomer, axis not shown) [Example A491] | 7.00 to 8.00 | 7.00 to 8.00 | 6.00 to 7.00 | 7.00 to 8.00 | > 5.30 | 7.00 to 8.00 | 7.00 to 8.00 |
| C=CC(=O)N1CCN(C(=O)N(C)[C@H](C(=O)N[C@H]2Cc3cc(O)cc(c3)-c3ccc4c(c3)c(c(-c3cccnc3[C@H](C)OC)n4CC)CC(C)(C)COC(=O)[C@@H]3CCCN(N3)C2=O)C(C)C)CC1 (atropisomer, axis not shown) [Example A262] | 7.00 to 8.00 | > 8.00 | 7.00 to 8.00 | 7.00 to 8.00 | > 5.30 | 7.00 to 8.00 | 7.00 to 8.00 |
| C=CC(=O)N1CCC(C(=O)N(C)[C@H](C(=O)N[C@H]2Cc3cc(CF)cc(c3)-c3ccc4c(c3)c(c(-c3cccnc3[C@H](C)OC)n4CC(F)(F)F)CC(C)(C)COC(=O)[C@@H]3CCCN(N3)C2=O)C(C)C)C1 (stereo partly drawn) [Example A659] | 6.00 to 7.00 | 6.00 to 7.00 | 6.00 to 7.00 | 7.00 to 8.00 | > 5.30 | 5.00 to 6.00 | 6.00 to 7.00 |
| C=CC(=O)N1CCN(C(=O)N(C)[C@H](C(=O)N[C@H]2Cc3nc(cs3)-c3ccc4c(c3)c(c(-c3cccnc3[C@H](C)OC)n4CC)CC(C)(C)COC(=O)[C@@H]3CCCN(N3)C2=O)C(C)C)[C@@H]2C[C@@H]21 (atropisomer, axis not shown) [Example A736] | 7.00 to 8.00 | 7.00 to 8.00 | 6.00 to 7.00 | 7.00 to 8.00 | > 5.30 | 7.00 to 8.00 | 7.00 to 8.00 |
